Assay results: ChEMBL document CHEMBL2040848, “Synthesis and bioactivity evaluation of rhodanine derivatives as potential anti-bacterial agents” (2012)
In brackets after ≈: the same amount, converted by molar mass.

Assays:
Assay type in all cases: functional
[1] = test system: Staphylococcus aureus; experiment: Antibacterial activity against Staphylococcus aureus KCTC 209 after 24 hrs by two-fold serial dilution method; settings: KCTC 209, 24 h
[2] = test system: Staphylococcus aureus; experiment: Antibacterial activity against quinolone-resistant Staphylococcus aureus CCARM 3505 after 24 hrs by two-fold serial dilution method; settings: CCARM 3505, 24 h
[3] = test system: Staphylococcus aureus; experiment: Antibacterial activity against methicillin-resistant Staphylococcus aureus CCARM 3167 after 24 hrs by two-fold serial dilution method; settings: CCARM 3167, 24 h
[4] = test system: Staphylococcus aureus; experiment: Antibacterial activity against methicillin-resistant Staphylococcus aureus CCARM 3506 after 24 hrs by two-fold serial dilution method; settings: CCARM 3506, 24 h
[5] = test system: Escherichia coli; experiment: Antibacterial activity against Escherichia coli 1356 after 24 hrs by two-fold serial dilution method; settings: Escherichia coli, 1356, 24 h
[6] = test system: Staphylococcus aureus; experiment: Antibacterial activity against quinolone-resistant Staphylococcus aureus CCARM 3519 after 24 hrs by two-fold serial dilution method; settings: CCARM 3519, 24 h
[7] = test system: Staphylococcus aureus; experiment: Antibacterial activity against Staphylococcus aureus KCTC 4220 after 24 hrs by two-fold serial dilution method; settings: KCTC 4220, 24 h
[8] = test system: Staphylococcus aureus; experiment: Antibacterial activity against Staphylococcus aureus KCTC 503 after 24 hrs by two-fold serial dilution method; settings: KCTC 503, 24 h

SMILES	MIC [1] [µg/mL]	MIC [2] [µg/mL]	MIC [3] [µg/mL]	MIC [4] [µg/mL]	MIC [5] [µg/mL]	MIC [6] [µg/mL]	MIC [7] [µg/mL]	MIC [8] [µg/mL]
O=C(COc1ccc(/C=C2\SC(=S)N([C@@H](Cc3ccccc3)C(=O)O)C2=O)cc1)c1ccccc1Cl	8 (≈ 14.9 µM)	4 (≈ 7.43 µM)	4 (≈ 7.43 µM)	4 (≈ 7.43 µM)	> 64	4 (≈ 7.43 µM)	8 (≈ 14.9 µM)	8 (≈ 14.9 µM)
O=C(COc1ccc(/C=C2\SC(=S)N([C@@H](Cc3ccccc3)C(=O)O)C2=O)cc1)c1cccc(Cl)c1	4 (≈ 7.43 µM)	4 (≈ 7.43 µM)	4 (≈ 7.43 µM)	4 (≈ 7.43 µM)	> 64	4 (≈ 7.43 µM)	8 (≈ 14.9 µM)	4 (≈ 7.43 µM)
O=C(COc1ccc(/C=C2\SC(=S)N([C@@H](Cc3ccccc3)C(=O)O)C2=O)cc1)c1ccc(Cl)cc1	4 (≈ 7.43 µM)	4 (≈ 7.43 µM)	4 (≈ 7.43 µM)	4 (≈ 7.43 µM)	> 64	4 (≈ 7.43 µM)	4 (≈ 7.43 µM)	8 (≈ 14.9 µM)
O=C(COc1ccc(/C=C2\SC(=S)N([C@@H](Cc3ccccc3)C(=O)O)C2=O)cc1)c1ccc(Cl)cc1Cl	8 (≈ 14 µM)	8 (≈ 14 µM)	8 (≈ 14 µM)	8 (≈ 14 µM)	> 64	8 (≈ 14 µM)	8 (≈ 14 µM)	8 (≈ 14 µM)
O=C(COc1ccc(/C=C2\SC(=S)N([C@@H](Cc3ccccc3)C(=O)O)C2=O)cc1)c1ccccc1Br	4 (≈ 6.87 µM)	4 (≈ 6.87 µM)	4 (≈ 6.87 µM)	8 (≈ 13.7 µM)	> 64	8 (≈ 13.7 µM)	8 (≈ 13.7 µM)	8 (≈ 13.7 µM)
O=C(COc1ccc(/C=C2\SC(=S)N([C@@H](Cc3ccccc3)C(=O)O)C2=O)cc1)c1cccc(Br)c1	4 (≈ 6.87 µM)	4 (≈ 6.87 µM)	4 (≈ 6.87 µM)	4 (≈ 6.87 µM)	> 64	4 (≈ 6.87 µM)	4 (≈ 6.87 µM)	4 (≈ 6.87 µM)
O=C(COc1ccc(/C=C2\SC(=S)N([C@@H](Cc3ccccc3)C(=O)O)C2=O)cc1)c1ccc(Br)cc1	8 (≈ 13.7 µM)	4 (≈ 6.87 µM)	4 (≈ 6.87 µM)	8 (≈ 13.7 µM)	> 64	8 (≈ 13.7 µM)	8 (≈ 13.7 µM)	8 (≈ 13.7 µM)
O=C(COc1ccc(/C=C2\SC(=S)N([C@@H](Cc3ccccc3)C(=O)O)C2=O)cc1)c1ccccc1F	4 (≈ 7.67 µM)	4 (≈ 7.67 µM)	4 (≈ 7.67 µM)	4 (≈ 7.67 µM)	> 64	4 (≈ 7.67 µM)	8 (≈ 15.3 µM)	8 (≈ 15.3 µM)
O=C(COc1ccc(/C=C2\SC(=S)N([C@@H](Cc3ccccc3)C(=O)O)C2=O)cc1)c1ccccc1	4 (≈ 7.94 µM)	8 (≈ 15.9 µM)	8 (≈ 15.9 µM)	4 (≈ 7.94 µM)	> 64	4 (≈ 7.94 µM)	8 (≈ 15.9 µM)	8 (≈ 15.9 µM)
Cc1ccc(C(=O)COc2ccc(/C=C3\SC(=S)N([C@@H](Cc4ccccc4)C(=O)O)C3=O)cc2)cc1	8 (≈ 15.5 µM)	4 (≈ 7.73 µM)	4 (≈ 7.73 µM)	8 (≈ 15.5 µM)	> 64	8 (≈ 15.5 µM)	8 (≈ 15.5 µM)	8 (≈ 15.5 µM)
COc1cccc(C(=O)COc2ccc(/C=C3\SC(=S)N([C@@H](Cc4ccccc4)C(=O)O)C3=O)cc2)c1	8 (≈ 15 µM)	8 (≈ 15 µM)	8 (≈ 15 µM)	8 (≈ 15 µM)	> 64	8 (≈ 15 µM)	8 (≈ 15 µM)	8 (≈ 15 µM)
COc1ccccc1C(=O)COc1ccc(/C=C2\SC(=S)N([C@@H](Cc3ccccc3)C(=O)O)C2=O)cc1	4 (≈ 7.5 µM)	4 (≈ 7.5 µM)	4 (≈ 7.5 µM)	4 (≈ 7.5 µM)	> 64	4 (≈ 7.5 µM)	4 (≈ 7.5 µM)	4 (≈ 7.5 µM)
O=C(COc1ccc(/C=C2\SC(=S)N([C@@H](Cc3ccc(O)cc3)C(=O)O)C2=O)cc1)c1ccccc1Cl	16 (≈ 28.9 µM)	8 (≈ 14.4 µM)	8 (≈ 14.4 µM)	16 (≈ 28.9 µM)	> 64	16 (≈ 28.9 µM)	16 (≈ 28.9 µM)	8 (≈ 14.4 µM)
O=C(COc1ccc(/C=C2\SC(=S)N([C@@H](Cc3ccc(O)cc3)C(=O)O)C2=O)cc1)c1cccc(Cl)c1	8 (≈ 14.4 µM)	8 (≈ 14.4 µM)	8 (≈ 14.4 µM)	8 (≈ 14.4 µM)	> 64	8 (≈ 14.4 µM)	8 (≈ 14.4 µM)	8 (≈ 14.4 µM)
O=C(COc1ccc(/C=C2\SC(=S)N([C@@H](Cc3ccc(O)cc3)C(=O)O)C2=O)cc1)c1ccc(Cl)cc1	8 (≈ 14.4 µM)	8 (≈ 14.4 µM)	8 (≈ 14.4 µM)	16 (≈ 28.9 µM)	> 64	16 (≈ 28.9 µM)	16 (≈ 28.9 µM)	8 (≈ 14.4 µM)
O=C(COc1ccc(/C=C2\SC(=S)N([C@@H](Cc3ccc(O)cc3)C(=O)O)C2=O)cc1)c1ccc(Cl)cc1Cl	4 (≈ 6.8 µM)	8 (≈ 13.6 µM)	8 (≈ 13.6 µM)	8 (≈ 13.6 µM)	> 64	8 (≈ 13.6 µM)	8 (≈ 13.6 µM)	4 (≈ 6.8 µM)

SMILES	MIC [1] [µg/mL]	MIC [2] [µg/mL]	MIC [3] [µg/mL]	MIC [4] [µg/mL]	MIC [5] [µg/mL]	MIC [6] [µg/mL]	MIC [7] [µg/mL]	MIC [8] [µg/mL]
O=C(COc1ccc(/C=C2\SC(=S)N([C@@H](Cc3ccc(O)cc3)C(=O)O)C2=O)cc1)c1ccccc1Br	16 (≈ 26.7 µM)	16 (≈ 26.7 µM)	16 (≈ 26.7 µM)	32 (≈ 53.5 µM)	> 64	32 (≈ 53.5 µM)	32 (≈ 53.5 µM)	16 (≈ 26.7 µM)
O=C(COc1ccc(/C=C2\SC(=S)N([C@@H](Cc3ccc(O)cc3)C(=O)O)C2=O)cc1)c1cccc(Br)c1	8 (≈ 13.4 µM)	8 (≈ 13.4 µM)	8 (≈ 13.4 µM)	8 (≈ 13.4 µM)	> 64	8 (≈ 13.4 µM)	8 (≈ 13.4 µM)	8 (≈ 13.4 µM)
O=C(COc1ccc(/C=C2\SC(=S)N([C@@H](Cc3ccc(O)cc3)C(=O)O)C2=O)cc1)c1ccc(Br)cc1	4 (≈ 6.68 µM)	8 (≈ 13.4 µM)	8 (≈ 13.4 µM)	8 (≈ 13.4 µM)	> 64	8 (≈ 13.4 µM)	8 (≈ 13.4 µM)	4 (≈ 6.68 µM)
O=C(COc1ccc(/C=C2\SC(=S)N([C@@H](Cc3ccc(O)cc3)C(=O)O)C2=O)cc1)c1ccccc1F	8 (≈ 14.9 µM)	16 (≈ 29.8 µM)	16 (≈ 29.8 µM)	16 (≈ 29.8 µM)	> 64	16 (≈ 29.8 µM)	32 (≈ 59.5 µM)	16 (≈ 29.8 µM)
O=C(COc1ccc(/C=C2\SC(=S)N([C@@H](Cc3ccc(O)cc3)C(=O)O)C2=O)cc1)c1ccc(F)cc1	8 (≈ 14.9 µM)	8 (≈ 14.9 µM)	8 (≈ 14.9 µM)	8 (≈ 14.9 µM)	> 64	8 (≈ 14.9 µM)	8 (≈ 14.9 µM)	8 (≈ 14.9 µM)
O=C(COc1ccc(/C=C2\SC(=S)N([C@@H](Cc3ccc(O)cc3)C(=O)O)C2=O)cc1)c1ccccc1	32 (≈ 61.6 µM)	32 (≈ 61.6 µM)	32 (≈ 61.6 µM)	32 (≈ 61.6 µM)	> 64	32 (≈ 61.6 µM)	32 (≈ 61.6 µM)	32 (≈ 61.6 µM)
Cc1ccc(C(=O)COc2ccc(/C=C3\SC(=S)N([C@@H](Cc4ccc(O)cc4)C(=O)O)C3=O)cc2)cc1	4 (≈ 7.5 µM)	16 (≈ 30 µM)	16 (≈ 30 µM)	16 (≈ 30 µM)	> 64	16 (≈ 30 µM)	32 (≈ 60 µM)	8 (≈ 15 µM)
COc1cccc(C(=O)COc2ccc(/C=C3\SC(=S)N([C@@H](Cc4ccc(O)cc4)C(=O)O)C3=O)cc2)c1	8 (≈ 14.6 µM)	8 (≈ 14.6 µM)	8 (≈ 14.6 µM)	16 (≈ 29.1 µM)	> 64	16 (≈ 29.1 µM)	32 (≈ 58.2 µM)	8 (≈ 14.6 µM)
COc1ccccc1C(=O)COc1ccc(/C=C2\SC(=S)N([C@@H](Cc3ccc(O)cc3)C(=O)O)C2=O)cc1	8 (≈ 14.6 µM)	8 (≈ 14.6 µM)	8 (≈ 14.6 µM)	8 (≈ 14.6 µM)	> 64	8 (≈ 14.6 µM)	32 (≈ 58.2 µM)	8 (≈ 14.6 µM)
O=C(COc1ccc(/C=C2\SC(=S)N([C@@H](Cc3c[nH]c4ccccc34)C(=O)O)C2=O)cc1)c1ccccc1Cl	4 (≈ 6.93 µM)	8 (≈ 13.9 µM)	8 (≈ 13.9 µM)	8 (≈ 13.9 µM)	> 64	8 (≈ 13.9 µM)	8 (≈ 13.9 µM)	4 (≈ 6.93 µM)
O=C(COc1ccc(/C=C2\SC(=S)N([C@@H](Cc3c[nH]c4ccccc34)C(=O)O)C2=O)cc1)c1ccc(Cl)cc1Cl	4 (≈ 6.54 µM)	4 (≈ 6.54 µM)	4 (≈ 6.54 µM)	8 (≈ 13.1 µM)	> 64	8 (≈ 13.1 µM)	8 (≈ 13.1 µM)	8 (≈ 13.1 µM)
O=C(COc1ccc(/C=C2\SC(=S)N([C@@H](Cc3c[nH]c4ccccc34)C(=O)O)C2=O)cc1)c1ccccc1Br	4 (≈ 6.44 µM)	4 (≈ 6.44 µM)	4 (≈ 6.44 µM)	8 (≈ 12.9 µM)	> 64	8 (≈ 12.9 µM)	8 (≈ 12.9 µM)	4 (≈ 6.44 µM)
O=C(COc1ccc(/C=C2\SC(=S)N([C@@H](Cc3c[nH]c4ccccc34)C(=O)O)C2=O)cc1)c1cccc(Br)c1	2 (≈ 3.22 µM)	4 (≈ 6.44 µM)	4 (≈ 6.44 µM)	4 (≈ 6.44 µM)	> 64	4 (≈ 6.44 µM)	4 (≈ 6.44 µM)	4 (≈ 6.44 µM)
O=C(COc1ccc(/C=C2\SC(=S)N([C@@H](Cc3c[nH]c4ccccc34)C(=O)O)C2=O)cc1)c1ccc(Br)cc1	4 (≈ 6.44 µM)	8 (≈ 12.9 µM)	8 (≈ 12.9 µM)	8 (≈ 12.9 µM)	> 64	8 (≈ 12.9 µM)	8 (≈ 12.9 µM)	4 (≈ 6.44 µM)
O=C(COc1ccc(/C=C2\SC(=S)N([C@@H](Cc3c[nH]c4ccccc34)C(=O)O)C2=O)cc1)c1ccccc1F	8 (≈ 14.3 µM)	8 (≈ 14.3 µM)	8 (≈ 14.3 µM)	8 (≈ 14.3 µM)	> 64	8 (≈ 14.3 µM)	8 (≈ 14.3 µM)	8 (≈ 14.3 µM)
